The text below walks through data of US5229381A, “Substituted azetidinones as anti-inflammatory and antidegenerative agents” (Merck & Co., Inc., priority 1991, dated 1993).

SMILES strings stand for the structures.

The first assay deals with T1, human polymorphonuclear leukocyte elastase (Homo sapiens, UniProt P08246).
T1 construct: Crude extract of human polymorphonuclear leukocytes (PMN) containing elastase activity; endogenous in cells; host or cells: human polymorphonuclear leukocytes (crude extract)
T1 sequence (P08246 30-247 limits assumed): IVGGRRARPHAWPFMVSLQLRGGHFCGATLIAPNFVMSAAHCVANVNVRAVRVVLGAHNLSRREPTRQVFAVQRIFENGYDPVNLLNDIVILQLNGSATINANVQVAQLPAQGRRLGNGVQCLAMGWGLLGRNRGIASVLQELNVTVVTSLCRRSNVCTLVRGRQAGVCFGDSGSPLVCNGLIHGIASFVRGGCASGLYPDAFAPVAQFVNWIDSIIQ
As to the kind of experiment: Inhibition of human polymorphonuclear leukocyte (granulocyte) elastase via hydrolysis of Boc-AAPAN or Boc-AAPVN. Format: biochemical. As to conditions: pH 7.5, Table II, (per mole per second); read-out: kobs/I, second order rate constant of inactivation of the enzyme.
Description: Enzyme Assays for the Inhibition of Human Polymorphonuclear Leukocyte Elastase Via Hydrolysis of N-t-Boc-alanyl-alanyl-prolylalanine-p-nitroanilide (Boc-AAPAN) or N-t-Boc-alanyl-prolylvaline-p-nitroanilide (Boc-AAPVN) Reagent:
0.05M TES (N-tris[hydroxymethyl]methyl-2-amino-ethanesulfonic acid) Buffer, pH 7.5.
0.2 mM Boc-AAPAN or Boc-AAPVN.
To prepare substrate, the solid was first dissolved in 10.0 ml DMSO. Buffer at pH 7.5 was then added to a final volume of 100 ml.
Crude extract of human polymorphonuclear leukocytes (PMN) containing elastase activity.
Inhibitors (azetidinones) to be tested dissolved in DMSO just before use.
To 1.0 ml of 0.2 mM Boc-AAPAN in a cuvette, 0.01-0.1 ml of DMSO with or without inhibitor was added. After mixing, a measurement was taken at 410 mμ to detect any spontaneous hydrolysis due to presence of test compound. 0.05 Milliliters of PMN extract was then added and the ΔOD/min at 410 mμ was measured and recorded. Beckman model 35 spectrophotometer was used.
Results were also expressed as Ki, the micromolar concentration of the inhibitor (μM) giving 50% of the control enzyme activity; or as ^k obs/I which is the second order rate constant in per mole per second for inactivation of the enzyme.
The elastase activity in the crude PMN extract may vary from one preparation to another. A control of each new batch is run, and the volume added in the assay procedure is adjusted according to activity.
Take `CCC1(CC)C(=O)N(C(=O)NCc2ccccc2)C1Oc1ccc(C(=O)N2CCC[C@H]2C(=O)O)cc1` (stereo partly shown) [Table II: C2 H5; C2 H5; drawing 37; CH2 Ph]: the kinact/KI worked out at 2000 M⁻¹ s⁻¹.
As to `CCC1(CC)C(=O)N(C(=O)NCc2ccccc2)C1Oc1ccc(C(=O)NS(=O)(=O)c2ccc(Cl)cc2)cc1` (stereo not shown) [Table II: C2 H5; C2 H5; drawing 38; CH2 Ph], the kinact/KI worked out at 6300 M⁻¹ s⁻¹.
For `CCC1(CC)C(=O)N(C(=O)NCc2ccccc2)C1Oc1ccc([C@H](NC(C)=O)C(=O)O)cc1` (stereo partly shown) [Table II: C2 H5; C2 H5; drawing 39; CH2 Ph], the kinact/KI came out at 2420 M⁻¹ s⁻¹.
In the case of `CCC1C(=O)N(C(=O)NCc2ccccc2)C1Oc1ccc(C(=O)O)cc1` (stereo not shown) [Table II: C2 H5; H; O-(4-COOHPh); CH2 Ph], the kinact/KI amounted to 4000 M⁻¹ s⁻¹.
The same measure, in the same setting: then `CCC1C(=O)N(C(=O)NCc2ccccc2)C1c1ccc(C(=O)O)cc1` (stereo not shown) [Table II: C2 H5; H; Ph-4-COOH; CH2 Ph], with 900 M⁻¹ s⁻¹; and `CCCC1C(=O)N(C(=O)NCc2ccccc2)C1Oc1ccc(C(=O)O)cc1` (stereo not shown) [Table II: C3 H7; H; O-(4-COOHPh); CH2 Ph], with 5000 M⁻¹ s⁻¹.
Consider `COC1C(=O)N(C(=O)NCc2ccc3ccccc3c2)C1c1ccc(C(=O)O)cc1` (stereo not shown) [Table II: H; OMe; Ph-4-COOH; CH2-2-Naph], for which the kinact/KI worked out at 1340 M⁻¹ s⁻¹.

The assay is the same for the next values; noted with them: pH 7.5, Table III, (per mole per second); read-out: kobs/I, second order rate constant of inactivation of the enzyme.
Take `CCC1(CC)C(=O)N(C(=O)NCc2ccccc2)C1n1cnc2ccccc21` (stereo not shown) [Table III: 1-benzimidazolyl; CH2 Ph]: the kinact/KI came out at 69 M⁻¹ s⁻¹.
On the same count and under the same terms, as for `CCC1(CC)C(=O)N(C(=O)NCc2ccc(-c3ccccc3)cc2)C1n1ccnc1` (stereo not shown) [Table III: 1-imidazole; CH2 Ph-4-Ph], the figure is 461 M⁻¹ s⁻¹; as for `CCC1(CC)C(=O)N(C(=O)NCc2ccccc2)C1n1cnnn1` (stereo not shown) [Table III: 1-tetrazolyl; CH2 Ph], 948 M⁻¹ s⁻¹; as for `CCC1(CC)C(=O)N(C(=O)NCc2ccc(-c3ccccc3)cc2)C1n1cncn1` (stereo not shown) [Table III: 1-triazolyl; CH2 Ph-4-Ph], 2140 M⁻¹ s⁻¹.
Still for that read-out and setting: then `CCC1(CC)C(=O)N(C(=O)NCc2ccccc2)C1n1c(=O)cc[nH]c1=O` (stereo not shown) [Table III: C00042; CH2 Ph], with 351 M⁻¹ s⁻¹; and `CCC1(CC)C(=O)N(C(=O)NCc2ccccc2)C1NC(=O)OC` (stereo not shown) [Table III: NHCOOMe; CH2 Ph], with 496 M⁻¹ s⁻¹.
Still for that read-out and setting: as for `CCC1(CC)C(=O)N(C(=O)NCc2ccccc2)C1Oc1ccccc1CCCN(C)C` (stereo not shown) [Table III: O-(2-(CH2)3 NMe2Ph); CH2 Ph], the figure is 629 M⁻¹ s⁻¹; as for `CCC1(CC)C(=O)N(C(=O)NCc2ccccc2)C1Oc1ccc(C(NC(C)=O)C(=O)O)cc1` (stereo not shown) [Table III: O-(4-CH(COOH)NHAcPh); CH2 Ph], 1680 M⁻¹ s⁻¹; as for `CCC1(CC)C(=O)N(C(=O)NCc2ccccc2O)C1Oc1ccc(C(=O)O)cc1` (stereo not shown) [Table III: O-(4-COOHPh); CH2 Ph(2-OH)], 1460 M⁻¹ s⁻¹.
On to `CCC1(CC)C(=O)N(C(=O)NCc2cccc(C)c2)C1Oc1ccc(C(=O)O)cc1` (stereo not shown) [Table III: O-(4-COOHPh); CH2 Ph(3-CH3)], for which the kinact/KI came out at 6930 M⁻¹ s⁻¹.
The same measure, in the same setting: as for `CCC1(CC)C(=O)N(C(=O)NCc2ccc(C(C)=O)cc2)C1Oc1ccc(C(=O)O)cc1` (stereo not shown) [Table III: O-(4-COOHPh); CH2 Ph(4-COMe)], the figure is 5920 M⁻¹ s⁻¹; as for `CCC1(CC)C(=O)N(C(=O)NCc2ccc(C(C)C)cc2)C1Oc1ccc(C(=O)O)cc1` (stereo not shown) [Table III: O-(4-COOHPh); CH2 Ph(4-i-Pr)], 18800 M⁻¹ s⁻¹.
Still for that read-out and setting: then `CCC1(CC)C(=O)N(C(=O)NCc2ccc(C(C)(C)C)cc2)C1Oc1ccc(C(=O)O)cc1` (stereo not shown) [Table III: O-(4-COOHPh); CH2 Ph(4-tBu)], with 21800 M⁻¹ s⁻¹.
Turning to `CCC1(CC)C(=O)N(C(=O)NCC2CCC3CCCCC3C2)C1Oc1ccc(C(=O)O)cc1` (stereo not shown) [Table III: O-(4-COOHPh); drawing 41], the kinact/KI is 4160 M⁻¹ s⁻¹.
Still for that read-out and setting: then `CCC1(CC)C(=O)N(C(=O)NCc2ccc(C(=O)N3CCOCC3)cc2)C1Oc1ccc(C(=O)O)cc1` (stereo not shown) [Table III: O-(4-COOHPh); drawing 43], with 2040 M⁻¹ s⁻¹.
The same measure, in the same setting: as for `C=CCOC1N(C(=O)NCc2ccc(-c3ccccc3)cc2)C(=O)C1(CC)CC` (stereo not shown) [Table III: O-(allyl); CH2 Ph-4-Ph], the figure is 12500 M⁻¹ s⁻¹; as for `CCC1(CC)C(=O)N(C(=O)NCc2ccccc2)C1OCC(O)CO` (stereo not shown) [Table III: O-glyceryl; CH2 Ph], 818 M⁻¹ s⁻¹; as for `CCC1(CC)C(=O)N(C(=O)NCc2ccc(-c3ccccc3)cc2)C1OCC(N)=O` (stereo not shown) [Table III: OCH2 CONH2; CH2Ph-4-Ph], 51800 M⁻¹ s⁻¹.
The same measure, in the same setting: then `CCC1(CC)C(=O)N(C(=O)NCc2ccc(-c3ccccc3)cc2)C1OCC(=O)O` (stereo not shown) [Table III: OCH2 COOH; CH2 Ph-4-Ph], with 2900 M⁻¹ s⁻¹.
On to `CCC(NC(=O)N1C(=O)C(CC)(CC)C1OCC(N)=O)c1ccccc1` (stereo not shown) [Table III: OCH2CONH2; CH(Et)Ph], for which the kinact/KI is 103000 M⁻¹ s⁻¹.
Turning to `CCC(NC(=O)N1C(=O)C(CC)(CC)C1OCC(=O)O)c1ccccc1` (stereo not shown) [Table III: OCH2COOH; CH(Et)Ph], the kinact/KI was determined as 5710 M⁻¹ s⁻¹.
Same read-out and setting: as for `CCC1(CC)C(=O)N(C(=O)NCc2ccccc2)C1n1ccccc1=O` (stereo not shown) [Table III: [2H-1-pyridonyl]; CH2 Ph], the figure is 357 M⁻¹ s⁻¹.

The same assay, now with this note: pH 7.5, Table IV, (per mole per second); read-out: kobs/I, second order rate constant of inactivation of the enzyme.
In the case of `CCC1C(=O)N(C(=O)N2CCc3ccccc3C2)C1Oc1ccc(C(=O)O)cc1` (stereo not shown) [Table IV: C2 H5; H; O-(4-COOHPh); drawing 46], the kinact/KI stood at 10100 M⁻¹ s⁻¹.

Staying with this assay, now noted: pH 7.5, Table V, (per mole per second); read-out: kobs/I, second order rate constant of inactivation of the enzyme.
Regarding `CC[C@@H](NC(=O)N1C(=O)C(CC)(CC)[C@@H]1Oc1ccc(CC(=O)O)cc1)c1ccccc1` [Table V: 4-CH2 COOH; Et; H], the kinact/KI came to 140000 M⁻¹ s⁻¹.
Still for that read-out and setting: as for `CCC[C@@H](NC(=O)N1C(=O)C(CC)(CC)[C@@H]1Oc1ccc(CC(=O)O)cc1)c1ccccc1` [Table V: 4-CH2 COOH; nPr; H], the figure is 227000 M⁻¹ s⁻¹; as for `CCC1(CC)C(=O)N(C(=O)N[C@H](COC)c2ccccc2)[C@H]1Oc1ccc(C(=O)O)cc1` [Table V: 4-COOH; CH2 OMe; H], 6090 M⁻¹ s⁻¹.
Consider `CC[C@@H](NC(=O)N1C(=O)C(CC)(CC)[C@@H]1Oc1ccc(C(=O)O)cc1)c1ccccc1` [Table V: 4-COOH; Et; H], for which the kinact/KI came out at 92000 M⁻¹ s⁻¹.
As for `CCC1(CC)C(=O)N(C(=O)N[C@H](C)c2ccc(C)cc2)[C@H]1Oc1ccc(C(=O)O)cc1` [Table V: 4-COOH; Me; 4-Me], the kinact/KI came out at 47000 M⁻¹ s⁻¹.
On the same count and under the same terms, then `CCC1(CC)C(=O)N(C(=O)N[C@H](Cc2ccccc2)c2ccccc2)[C@H]1Oc1ccc(C(=O)O)cc1` [Table V: 4-COOH; PhCH2; H], with 25000 M⁻¹ s⁻¹; and `CCC[C@@H](NC(=O)N1C(=O)C(CC)(CC)[C@@H]1Oc1ccc(C(=O)O)cc1)c1ccccc1` [Table V: 4-COOH; nPr; H], with 120000 M⁻¹ s⁻¹.

The assay is the same for the next values; noted with them: pH 7.5, Table VI, (per mole per second); read-out: kobs/I, second order rate constant of inactivation of the enzyme.
As for `CC[C@@H](NC(=O)N1C(=O)C(CC)(CC)[C@@H]1Oc1cc(C)c(C(=O)O)c(C)c1)c1ccccc1` [Table VI: 3,5-Me2-4-COOH; Et; H], the kinact/KI was determined as 25000 M⁻¹ s⁻¹.
The same measure, in the same setting: then `CC[C@@H](NC(=O)N1C(=O)C(CC)(CC)[C@@H]1Oc1cccc(CC(=O)O)c1)c1ccccc1` [Table VI: 3-CH2 COOH; Et; H], with 81000 M⁻¹ s⁻¹.
The same measure, in the same setting: as for `CCC1(CC)C(=O)N(C(=O)N[C@H](C)c2ccccc2)[C@H]1Oc1cccc(CC(=O)O)c1` [Table VI: 3-CH2 COOH; Me; H], the figure is 5880 M⁻¹ s⁻¹.
